Reference: the NIST ThermoML archive (doi:10.1021/je900599q)
Numbers after ± are expanded uncertainties.

Conditions: 298.2 K; 101.33 kPa; Liquid; Pycnometric method

## CO [methanol]
  mass density: 796 ± 1 kg/m3
